# Experimental data taken from patent publication US9079866B2, “Flap modulators” (JANSSEN PHARMACEUTICA NV, priority 2013, dated 2015).
# Where two headings read alike, the source gives them in different places.
# Legend:
# human FLAP = human FLAP (Homo sapiens (Human), UniProt P20292); experiment: FLAP binding assay (HTRF format); conditions: HTRF format
# Method in brief: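 Read-out is the HTRF ratio. Each reported figure averages two assay plates on which samples were tested in duplicate.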
# [1] = test system: leukotriene pathway in human whole blood (LTB4 levels); experiment: Human whole blood assay (A23187-stimulated LTB4); assay type: cell-based; conditions: read-out: LTB4 IC50 1:1
# Method in brief: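 Heparinised human whole blood diluted 1:1 in RPMI, pre-incubated 15 min at 37° Celsius with compound, then stimulated with A23187 (7 μg/mL) for 30 min at 37° Celsius. Plasma LTB4 measured by immunoassay kit; IC50 from 4-parameter fit; single replicate per plate, at least one healthy donor.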
# [2] = human FLAP wild type, average of two plates, duplicates
# [3] = Homo sapiens, human whole blood diluted 1:1 in RPMI, A23187-stimulated LTB4
# [4] = Homo sapiens, human whole blood diluted 1:1, A23187-stimulated
# Chain of human FLAP (P20292 whole entry): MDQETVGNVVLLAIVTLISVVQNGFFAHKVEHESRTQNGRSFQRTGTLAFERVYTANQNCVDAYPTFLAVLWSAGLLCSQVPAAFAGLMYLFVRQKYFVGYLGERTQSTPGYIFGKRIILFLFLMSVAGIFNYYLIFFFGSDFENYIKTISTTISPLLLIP
smiles,measurement,setting,value
"CC(NS(=O)(=O)c1ccccc1-c1ccc(-c2cnc(N)cn2)c(F)c1)C(F)(F)F (racemic) [Example 8, racemic 4′-(5-Aminopyrazin-2-yl)-3′-fluoro-N-(2,2,2-trifluoro-1-methylethyl)biphenyl-2-sulfonamide]",Ki,human FLAP; [2],1 nM
same,IC50,[1]; [3],12 nM
"Nc1cnc(-c2ccc(-c3ccccc3S(=O)(=O)NC3CC4CCC3C4)cc2F)cn1 (racemic) [Example 10, racemic (endo)-4′-(5-Aminopyrazin-2-yl)-N-bicyclo[2.2.1]hept-2-yl-3′-fluorobiphenyl-2-sulfonamide]",Ki,human FLAP; [2],3 nM
same,IC50,[1]; [3],53 nM
"Nc1cnc(-c2ccc(-c3ccccc3S(=O)(=O)N3CCN4CCCC4C3)cc2F)cn1 (racemic) [Example 61, racemic 5-[3-Fluoro-2′-(hexahydropyrrolo[1,2-a]pyrazin-2(1H)-ylsulfonyl)biphenyl-4-yl]pyrazin-2-amine]",Ki,human FLAP; [2],11 nM
same,IC50,[1]; [3],117 nM
"CC1CN(S(=O)(=O)c2ccccc2-c2ccc(-c3cnc(N)cn3)c(F)c2)CC(C)N1 (racemic) [Example 62, Racemic-5-{2′-[(3,5-Dimethylpiperazin-1-yl)sulfonyl]-3-fluorobiphenyl-4-yl}pyrazin-2-amine]",Ki,human FLAP; [2],142 nM
same,IC50,[1]; [3],111 nM
"Nc1cnc(-c2ccc(-c3ccccc3S(=O)(=O)N3CCCC(CCO)C3)cc2F)cn1 (racemic) [Example 71, racemic-2-(1-{[4′-(5-Aminopyrazin-2-yl)-3′-fluorobiphenyl-2-yl]sulfonyl}piperidin-3-yl)ethanol]",Ki,human FLAP; [2],2 nM
same,IC50,[1]; [3],23 nM
"Nc1cnc(-c2ccc(-c3ccccc3S(=O)(=O)N3CCCC(N)C3)cc2F)cn1 (racemic) [Example 74, racemic 5-{2′-[(3-Aminopiperidin-1-yl)sulfonyl]-3-fluorobiphenyl-4-yl}pyrazin-2-amine]",Ki,human FLAP; [2],6 nM
same,IC50,[1]; [3],61 nM
"CC(C)(C)OC(=O)NC1CCCN(S(=O)(=O)c2ccccc2-c2ccc(-c3cnc(N)cn3)c(F)c2)C1 (racemic) [Example 77, racemic tert-Butyl (1-{[4′-(5-aminopyrazin-2-yl)-3′-fluorobiphenyl-2-yl]sulfonyl}piperidin-3-yl)carbamate]",Ki,human FLAP; [2],3 nM
same,IC50,[1]; [3],342 nM
"Nc1cnc(-c2ccc(-c3ccccc3S(=O)(=O)N[C@H]3CCCC[C@@H]3O)cc2F)cn1 (racemic) [Example 120, Racemic-(trans)-4′-(5-Aminopyrazin-2-yl)-3′-fluoro-N-(2-hydroxycyclohexyl)biphenyl-2-sulfonamide]",Ki,human FLAP; [2],1 nM
same,IC50,[1]; [3],17 nM
"Nc1cnc(-c2ccc(-c3ccccc3S(=O)(=O)N[C@@H]3CCCC[C@@H]3CO)cc2F)cn1 (racemic) [Example 122, racemic (cis)-4′-(5-Aminopyrazin-2-yl)-3′-fluoro-N-[2-(hydroxymethyl)cyclohexyl]biphenyl-2-sulfonamide]",Ki,human FLAP; [2],1 nM
same,IC50,[1]; [3],18 nM
"NC(=O)C1CCN1S(=O)(=O)c1ccccc1-c1ccc(-c2cnc(N)cn2)c(F)c1 (racemic) [Example 139, Racemic 1-{[4′-(5-Aminopyrazin-2-yl)-3′-fluorobiphenyl-2-yl]sulfonyl}azetidine-2-carboxamide]",Ki,human FLAP; [2],133 nM
same,IC50,[1]; [3],341 nM
"Nc1cnc(-c2ccc(-c3ccccc3S(=O)(=O)N3CCOC(CO)C3)cc2F)cn1 (racemic) [Example 142, racemic (4-{[4′-(5-Aminopyrazin-2-yl)-3′-fluorobiphenyl-2-yl]sulfonyl}morpholin-2-yl)methanol]",Ki,human FLAP; [2],15 nM
same,IC50,[1]; [3],41 nM
"Nc1cnc(-c2ccc(-c3ccccc3S(=O)(=O)N3CCC(O)(c4ccccc4)C3)cc2F)cn1 (racemic) [Example 180, racemic 1-{[4′-(5-Aminopyrazin-2-yl)-3′-fluorobiphenyl-2-yl]sulfonyl}-3-phenylpyrrolidin-3-ol]",Ki,human FLAP; [2],2 nM
same,IC50,[1]; [3],37 nM
"Nc1cnc(-c2ccc(-c3ccccc3S(=O)(=O)N3C[C@H](O)[C@@H](N4CCCC4)C3)cc2F)cn1 (racemic) [Example 186, Racemic-1′-{[4′-(5-Aminopyrazin-2-yl)-3′-fluorobiphenyl-2-yl]sulfonyl}-1,3′-bipyrrolidin-4′-ol]",Ki,human FLAP; [2],19 nM
same,IC50,[1]; [3],21 nM
"Nc1cnc(-c2ccc(-c3ccccc3SCC3CNC(=O)O3)cc2F)cn1 (racemic) [Example 203, racemic 5-({[4′-(5-Aminopyrazin-2-yl)-3′-fluorobiphenyl-2-yl]sulfanyl}methyl)-1,3-oxazolidin-2-one]",Ki,human FLAP; [2],5 nM
same,IC50,[1]; [3],52 nM
"Nc1ncc(-c2ccc(-c3ccccc3S(=O)(=O)N3CCOC(CO)C3)cc2F)cn1 (racemic) [Example 252, racemic (4-{[4′-(2-Aminopyrimidin-5-yl)-3′-fluorobiphenyl-2-yl]sulfonyl}morpholin-2-yl)methanol]",Ki,human FLAP; [2],127 nM
same,IC50,[1]; [3],206 nM
"Nc1ncc(-c2ccc(-c3ccccc3S(=O)(=O)N[C@H]3CCCC[C@H]3O)cc2F)cn1 (racemic) [Example 259, racemic 4′-(2-Aminopyrimidin-5-yl)-3′-fluoro-N-[(cis)-2-hydroxycyclohexyl]biphenyl-2-sulfonamide]",Ki,human FLAP; [2],5 nM
same,IC50,[1]; [3],34 nM
"Nc1ncc(-c2ccc(-c3ccccc3S(=O)(=O)N[C@H]3CCCC[C@@H]3O)cc2F)cn1 (racemic) [Example 260, racemic 4′-(2-Aminopyrimidin-5-yl)-3′-fluoro-N-[(trans)-2-hydroxycyclohexyl]biphenyl-2-sulfonamide]",Ki,human FLAP; [2],10 nM
same,IC50,[1]; [3],57 nM
"Nc1ncc(-c2ccc(-c3ccccc3S(=O)(=O)N3CCCC(CCO)C3)cc2F)cc1F (racemic) [Example 671, 2-(1-((4′-(6-Amino-5-fluoropyridin-3-yl)-3′-fluoro-[1,1′-biphenyl]-2-yl)sulfonyl)piperidin-3-yl)ethanol]",Ki,human FLAP; wild type FLAP,15.7 nM
same,IC50,[1]; [4],164 nM
"Nc1ncc(-c2ccc(-c3ccccc3S(=O)(=O)N3CCCC(CO)C3)cc2F)cc1F (racemic) [Example 672, (1-((4′-(6-Amino-5-fluoropyridin-3-yl)-3′-fluoro-[1,1′-biphenyl]-2-yl)sulfonyl)piperidin-3-yl)methanol]",Ki,human FLAP; wild type FLAP,13.7 nM
same,IC50,[1]; [4],196 nM
"Nc1cnc(-c2ccc(-c3ccccc3C(=O)N3CCOC(C(F)(F)F)C3)cc2F)cn1 (racemic) [Example 754, racemic 5-(3-Fluoro-2′-{[2-(trifluoromethyl)morpholin-4-yl]carbonyl}biphenyl-4-yl)pyrazin-2-amine]",Ki,human FLAP; wild type FLAP,69.9 nM
same,IC50,[1]; [4],377 nM
"Nc1cnc(-c2ccc(-c3ccccc3C(=O)N3CCOC(CO)C3)cc2F)cn1 (racemic) [Example 798, [2-[4-(5-Aminopyrazin-2-yl)-3-fluoro-phenyl]phenyl]-[2-(hydroxymethyl)morpholin-4-yl]methanone]",Ki,human FLAP; wild type FLAP,257 nM
same,IC50,[1]; [4],220 nM
"Nc1cnc(-c2ccc(-c3ccccc3S(=O)(=O)N3C[C@H](O)[C@@H](O)C3)cc2F)cn1 (relative stereo) [Example 106, (trans)-1-{[4′-(5-Aminopyrazin-2-yl)-3′-fluorobiphenyl-2-yl]sulfonyl}pyrrolidine-3,4-diol]",Ki,human FLAP; [2],19 nM
same,IC50,[1]; [3],> 1000 nM
"Nc1cnc(-c2ccc(-c3ccccc3S(=O)(=O)NC3CCc4ccccc43)cc2F)cn1 (stereo in doubt) [Example 22, (S)-4′-(5-Aminopyrazin-2-yl)-N-[(1S)-2,3-dihydro-1H-inden-1-yl]-3′-fluorobiphenyl-2-sulfonamide]",Ki,human FLAP; [2],2 nM
same,IC50,[1]; [3],48 nM
"C[C@H](NS(=O)(=O)c1ccccc1-c1ccc(-c2cnc(N)cn2)c(F)c1)C(O)c1ccccc1 (stereo in doubt) [Example 83, 4′-(5-Aminopyrazin-2-yl)-3′-fluoro-N-[(1S,2R)-2-hydroxy-1-methyl-2-phenylethyl]biphenyl-2-sulfonamide]",Ki,human FLAP; [2],1 nM
same,IC50,[1]; [3],19 nM
"NC[C@H]1CCCN1S(=O)(=O)c1ccccc1-c1ccc(-c2cnc(N)cn2)c(F)c1 (stereo in doubt) [Example 94, 5-(2′-{[2-(Aminomethyl)pyrrolidin-1-yl]sulfonyl}-3-fluorobiphenyl-4-yl)pyrazin-2-amine]",Ki,human FLAP; [2],76 nM
same,IC50,[1]; [3],235 nM
"CC(CO)NS(=O)(=O)c1ccccc1-c1ccc(-c2ccc(N)nc2)c(F)c1 (stereo in doubt) [Example 352, (R)-4′-(6-Aminopyridin-3-yl)-3′-fluoro-N-(1-hydroxypropan-2-yl)-[1,1′-biphenyl]-2-sulfonamide]",Ki,human FLAP; [2],16 nM
same,IC50,"[1]; human whole blood diluted 1:1 in RPMI, A23187-stimulated LTB4",64 nM
"CC(=O)NC1CCN(S(=O)(=O)c2ccccc2-c2ccc(-c3cnc(N)c(F)c3)c(F)c2)CC1 [Example 670, N-(1-((4′-(6-Amino-5-fluoropyridin-3-yl)-3′-fluoro-[1,1′-biphenyl]-2-yl)sulfonyl)piperidin-4-yl)acetamide]",IC50,[1]; [4],526 nM
"N#Cc1nc(N)cnc1-c1ccc(-c2ccc(C(F)(F)F)cc2S(=O)(=O)N2CCNC(=O)C2)cc1F [Example 715, 6-Amino-3-{3-fluoro-2′-[(3-oxopiperazin-1-yl)sulfonyl]-4′-(trifluoromethyl)biphenyl-4-yl}pyrazine-2-carbonitrile]",IC50,[1]; [4],186 nM
"CC(C)(C(N)=O)S(=O)(=O)c1ccccc1-c1ccc(-c2cnc(N)cn2)c(F)c1 [Example 736, 2-{[4′-(5-Aminopyrazin-2-yl)-3′-fluorobiphenyl-2-yl]sulfonyl}-2-methylpropanamide]",IC50,[1]; [4],414 nM
"N#Cc1nc(N)cnc1-c1ccc(-c2ccccc2Oc2nccc(N)n2)cc1F [Example 745, 6-Amino-3-{2′-[(4-aminopyrimidin-2-yl)oxy]-3-fluorobiphenyl-4-yl}pyrazine-2-carbonitrile]",IC50,[1]; [4],111 nM
